Several values for one entry are separate records, joined by “and”; a condition that tells them apart may be missing. Equal entries are not always repeated. Entries after “also recorded” stand apart in the source; their conditions may differ. Marks after values point to notes of the source that are not given here.
Legend:
[1] = test system: JHOC-5, TYKNU, PA-1, OAW42, ES-2, COV362 cell lines; test: Long-term proliferation assays, single-deficient or WT ovarian cell lines; assay type: cell-based
[2] = test system: Bin-67 xenograft tumors; test: SCCOHT xenograft model (Bin-67); assay type: in vivo
Description: EZH2 target inhibition was assessed by H3K27me3 levels in xenograft tissue collected on day 18 (FIG. 18B). Each point represents the ratio of H3K27me3 to total H3 from the tumor of a single animal.

[3] = test system: COV434 xenograft tumors; test: SCCOHT xenograft model (COV434); assay type: in vivo
Description: After day 28, a portion of the COV434 xenograft cohort were retained to monitor for tumor regrowth while under no treatment, of which there was none. EZH2 target inhibition was assessed by H3K27me3 levels in xenograft tissue collected on day 28 (FIG. 19B). Each point represents the ratio of H3K27me3 to total H3 from the tumor of a single animal.

[4] = test system: TOV112D xenograft tumors; test: SCCOHT xenograft model (TOV112D); assay type: in vivo
Description: EZH2 target inhibition was measured by H3K27me3 levels in xenograft tissue collected on day 14 (FIG. 20B). Each point represents the ratio of H3K27me3 to total H3 from the tumor of a single animal.

[5] = human, in vivo
Description: (§1) Table 2 describes a Phase 1 clinical trial design (sponsor protocol no.: E7438-G000-001, ClinicalTrials.gov identifier: NCT01897571). The study population included subjects with relapsed or refractory solid tumors or B-cell lymphoma. Subjects received a 3+3 dose-escalation in expansion cohorts receiving 800 mg BID and 1600 mg BID, respectively, or a cohort for ascertaining the effect of food on dosing at 400 mg BID. The primary endpoint was a determination of recommended phase II dose (RP2D)/maximum tolerated dose (MTD). Secondary endpoints included safety, pharmacokinetics (PK), pharmacodynamics (PD) and tumor response, assessed every 8 wks.

[6] = test system: INI1-negative malignant rhabdoid tumor; test: Phase 1 clinical activity, INI1-negative malignant rhabdoid tumor; assay type: in vivo, human; conditions: for Best Response / Time on study: INI1-negative malignant rhabdoid tumor
Description: as §1

[7] = test system: INI1-negative epithelioid sarcoma; test: Phase 1 clinical activity, INI1-negative epithelioid sarcoma; assay type: in vivo, human
Description: as §1

[8] = test system: SMARCA4-negative malignant rhabdoid tumor of ovary (SCCOHT); test: Phase 1 clinical activity, SMARCA4-negative malignant rhabdoid tumor of ovary (SCCOHT); assay type: in vivo, human; conditions: for Tumor size: person, 1600 mg BID oral tablet
Description: as §1

[9] = test system: SMARCA4-negative thoracic sarcoma; test: Phase 1 clinical activity, SMARCA4-negative thoracic sarcoma; assay type: in vivo, human; conditions: 1600 mg BID
Description: as §1

[10] = test system: H3K27me3 in INI1- and SMARCA4-negative tumors; test: Pharmacodynamic H3K27me3 inhibition in tumor tissue of patients; assay type: in vivo, human
[11] = test system: MRT and MRTO/SCCOHT; test: Assessment of clinical activity in MRT and MRTO/SCCOHT; assay type: in vivo, human; conditions: MRT and MRTO/SCCOHT following treatment
[12] = test system: Dual SMARCA2 and SMARCA4 deficient ovarian cell lines; conditions: four SMARCA2-deficient and SMARCA4-deficient cell lines
[13] = test system: cell lines and xenografts deficient in INI1 (SNF5/SMARCB1); conditions: Knutson et al. PNAS 2013; cited from earlier work
[14] = Oral bioavailability; conditions: in vivo
[15] = test system: G401 xenograft
[16] = 800 mg BID, + = remains on study

## CCN(c1cc(-c2ccc(CN3CCOCC3)cc2)cc(C(=O)NCc2c(C)cc(C)[nH]c2=O)c1C)C1CCOCC1 [tazemetostat]
[1]
  sensitivity: Lower sensitivity
[2]; after 18 days
  tumor volume compared to vehicle: statistically significant differences in volume compared to vehicle
[2]; after 18 days of treatment
  H3K27me3 in xenograft tumors: reduction of H3K27me3
[3]; after 28 days
  tumor volume compared to vehicle: statistically significant differences in volume compared to vehicle
[3]; after day 28
  tumor regrowth while under no treatment: none
[4]; 14 days, twice daily
  tumor volume compared to vehicle: statistically significant differences in volume compared to vehicle
[4]; after 14 days of treatment
  H3K27me3 in xenograft tumors: reduction of H3K27me3
[5]
  Anemia, All Events, All Grades: 7
  Anemia, All Events, Grade n: 1
  Anemia, All Treatment-Related, All Grades: 3
  Anemia, All Treatment-Related, Grade n: 0
  Asthenia, All Events, All Grades: 28
  Asthenia, All Events, Grade n: 1
  Asthenia, All Treatment-Related, All Grades: 12
  Asthenia, All Treatment-Related, Grade n: 0
  Constipation, All Events, All Grades: 7
  Constipation, All Events, Grade n: 0
  Constipation, All Treatment-Related, All Grades: 2
  Constipation, All Treatment-Related, Grade n: 0
  Decreased appetite, All Events, All Grades: 11
  Decreased appetite, All Events, Grade n: 3
  Decreased appetite, All Treatment-Related, All Grades: 3
  Decreased appetite, All Treatment-Related, Grade n: 1
  Dysgeusia, All Events, All Grades: 5
  Dysgeusia, All Events, Grade n: 0
  Dysgeusia, All Treatment-Related, All Grades: 5
  Dysgeusia, All Treatment-Related, Grade n: 0
  Dyspnea, All Events, All Grades: 8
  Dyspnea, All Events, Grade n: 0
  Dyspnea, All Treatment-Related, All Grades: 0
  Dyspnea, All Treatment-Related, Grade n: 0
  Elevated LFTs, All Events, All Grades: 2
  Elevated LFTs, All Events, Grade n: 1
  Elevated LFTs, All Treatment-Related, All Grades: 0
  Elevated LFTs, All Treatment-Related, Grade n: 1
  Hypertension, All Events, All Grades: 3
  Hypertension, All Events, Grade n: 1
  Hypertension, All Treatment-Related, All Grades: 1
  Hypertension, All Treatment-Related, Grade n: 1
  Muscle Spasms, All Events, All Grades: 5
  Muscle Spasms, All Events, Grade n: 0
  Muscle Spasms, All Treatment-Related, All Grades: 2
  Muscle Spasms, All Treatment-Related, Grade n: 0
  Nausea, All Events, All Grades: 8
  Nausea, All Events, Grade n: 0
  Nausea, All Treatment-Related, All Grades: 7
  Nausea, All Treatment-Related, Grade n: 0
  Neutropenia, All Events, All Grades: 2
  Neutropenia, All Events, Grade n: 1
  Neutropenia, All Treatment-Related, All Grades: 1
  Neutropenia, All Treatment-Related, Grade n: 1
  Thrombocytopenia, All Events, All Grades: 10
  Thrombocytopenia, All Events, Grade n: 2
  Thrombocytopenia, All Treatment-Related, All Grades: 6
  Thrombocytopenia, All Treatment-Related, Grade n: 1
  Vomiting, All Events, All Grades: 6
  Vomiting, All Events, Grade n: 0
  Vomiting, All Treatment-Related, All Grades: 3
  Vomiting, All Treatment-Related, Grade n: 0
[6]; 400 mg BID
  Best Response: SD week 8
[6]; 400 mg BID, + = remains on study
  Time on study: 12+ weeks
[6]; 800 mg BID
  Best Response: complete remission (CR); also recorded: CR week 8*; also recorded: PD week 8
[6]; [16]
  Time on study: 65+ weeks and 35 weeks
[6]; 1600 mg BID
  Time on study: 16 weeks and 17 weeks
[6]; patient with INI1-negative (IHC) relapsed malignant rhabdoid tumor, Phase 1
  response: complete response
[7]; 400 mg BID
  Best Response: PD week 8
  Time on study: 11 weeks
[7]; 800 mg BID
  Best Response: partial remission (PR); also recorded: PR week 8; also recorded: SD week 8
[7]; [16]
  Time on study: 25+ weeks and 24+ weeks
[8]; Phase 1, two patients with SCCOHT (SMARCA4-negative)
  clinical activity: Clinical activity was observed
[8]; SMARCA4-negative SCCOHT, 1600 mg BID
  Best Response: PR week 8*; also recorded: SD week 8
[8]; SMARCA4-negative SCCOHT, 1600 mg BID, + = remains on study
  Time on study: 25+ weeks and 26+ weeks
[8]; after 8 weeks
  Tumor size: decreased from baseline
[8]; after 16 weeks
  Tumor size: further decreased from the 8 week measurement
[9]
  Best Response: PD week 5
  Time on study: 6 weeks
[10]
  pharmacodynamics inhibition of HeK27me3 in tumor tissue: induces pharmacodynamics inhibition of HeK27me3
[11]
  clinical activity: stable disease for at least six months, partial remission or complete remission
[12]
  inhibition of cell growth: Dose-dependent inhibition of cell growth
[13]
  sensitivity of INI1-deficient cell lines and xenografts: profound sensitivity and durable regressions
[14]
  oral bioavailability: orally bioavailable
[15]
  antitumor activity: antitumor activity

— US20200138825A1, “METHOD OF TREATING MALIGNANT RHABDOID TUMOR OF THE OVARY (MRTO)/SMALL CELL CANCER OF THE OVARY OF THE HYPERCALCEMIC TYPE(SCCOHT) WITH AN EZH2 INHIBITOR” (Epizyme, Inc., priority 2015, published 2020)
